Assay results: ChEMBL document CHEMBL3393044, “Amphirionin-2, a novel linear polyketide with potent cytotoxic activity from a marine dinoflagellate Amphidinium species” (Bioorg Med Chem Lett, 2015)
Values after ≈ are worked out from the molar mass of the structure shown. Active and inactive are the calls of the source. The calls are words filed in the database; no cut-off is given here.

Assays:
[1] = test system: A549; assay: Cytotoxicity against human A549 cells after 72 hrs by WST-8 assay; format: functional, cell-based; settings: A549, 72 h
[2] = Cytotoxicity against human Caco2 cells after 72 hrs by WST-8 assay; format: functional, cell-based; settings: Caco-2, 72 h
[3] = test system: P388; assay: Antitumor activity against mouse P388 cells xenografted in CDF1 mouse at 0.5 mg/kg administered on day 1 and day 5 relative to control; format: functional
[4] = species: Homo sapiens; assay: Binding affinity to actin (unknown origin) by surface plasmon resonance analysis
[5] = test system: HeLa; assay: Cytotoxicity against human HeLa cells assessed as growth inhibition at 1 ug/ml after 72 hrs by WST-8 assay; format: functional; settings: read-out: GI

SMILES: C=CC[C@H](C)[C@@H](O)C[C@@H]1C[C@H]2O[C@H](/C=C(C)/C=C/C[C@H]3C[C@@H]4O[C@@H](/C=C/CCCCC)C[C@@H]4O3)C[C@H]2O1
- IC50 [1]: 0.6 µg/mL (≈ 1.17 µM)
- IC50 [2]: 0.1 µg/mL (≈ 0.194 µM)
- T/C [3]: 120%
- Activity [4]: Active
- inhibition of growth at 1 µg/mL [5]: 20%
